Literature values as cited in US20110223150A1, “Neutraceutical-Based Topical Anxiolytic Agent and Method of Use” (priority 2009, published 2011).
Where two headings read alike, the source gives them in different places.

Tests used:
[1] = tested on: spontaneously hypertensive rats (SHR); conditions: dose-dependent
rats [2] = conditions: chronic administration of 50 mg/kg
mice = conditions: i.p. in mice
rats [3] = tested on: rats

Which blood pressure effect [1] does the source give for `NC(=O)CC[C@H](N)C(=O)O` [L-glutamine] here?
The blood pressure effect was “did not exhibit an anti-hypertensive effect”.

Which teratogenic effects (rats [2]) does the source give for `NCC(CC(=O)O)c1ccccc1` (stereo not drawn) [Phenibut, beta-phenyl-gamma-aminobutyric acid] here?
Its teratogenic effects is “did not have teratogenic effects”.

What about the LD50 (mice) of the same compound?
Its LD50 is 900 mg/kg.

And the LD50 (rats [3]; i.p. in rats)?
The LD50 was 700 mg/kg.

And the LD50 (rats [3]; rats, method of administration not given)?
The LD50 was 1000 mg/kg.

What does the source list for “gamma-ethylamino-L-glutamic acid [L-theanine]”?
blood pressure effect [1]: blood pressure lowering effect; time until alpha waves were observed (occipital and parietal regions) (alpha brain waves; 50 or 200 mg of L-theanine): ≤ 40 min; time to sense of relaxation after ingestion (alpha brain waves; after ingestion): 30 to 40 min; time after which intensity of alpha waves was detectable (alpha brain waves; separate study, dose dependent, 200 mg significant over controls): 30 min
